Patent publication US20230174485A1, “LIPOXYGENASE INHIBITORS” (SRI International, priority 2020, published 2023)
“And” between values parts separate entries of the source, which are not always exact repeats. Equal entries are not always repeated. Where two headings read alike, the source gives them in different places.

How the values were obtained:
Format in all cases: biochemical
[1] = molecular target: T1, recombinant 12-LOX enzyme (Homo sapiens, UniProt P18054); assay: 12-LOX fluorescent assay; settings: several values in one cell = repeat determinations
T1 sequence (P18054 1-663): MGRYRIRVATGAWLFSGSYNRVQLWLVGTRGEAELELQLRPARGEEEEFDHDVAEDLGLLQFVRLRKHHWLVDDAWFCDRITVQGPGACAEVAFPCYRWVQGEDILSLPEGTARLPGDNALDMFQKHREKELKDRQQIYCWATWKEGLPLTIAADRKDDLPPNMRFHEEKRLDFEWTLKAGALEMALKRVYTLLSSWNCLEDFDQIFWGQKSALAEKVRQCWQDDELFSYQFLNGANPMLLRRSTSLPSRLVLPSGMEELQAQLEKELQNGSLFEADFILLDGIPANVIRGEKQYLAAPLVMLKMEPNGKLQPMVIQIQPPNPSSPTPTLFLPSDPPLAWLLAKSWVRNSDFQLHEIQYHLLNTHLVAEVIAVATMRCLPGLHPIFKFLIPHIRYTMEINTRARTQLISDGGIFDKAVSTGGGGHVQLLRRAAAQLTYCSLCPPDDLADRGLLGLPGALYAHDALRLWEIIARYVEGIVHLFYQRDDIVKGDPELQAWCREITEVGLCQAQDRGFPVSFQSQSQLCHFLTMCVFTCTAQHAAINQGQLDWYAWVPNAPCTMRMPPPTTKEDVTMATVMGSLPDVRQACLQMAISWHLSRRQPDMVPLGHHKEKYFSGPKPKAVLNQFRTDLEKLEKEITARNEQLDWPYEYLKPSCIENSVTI
Experimental: (§1) 12-LOX/15-LOX Fluorescent Assay
(§2) The enzyme assay (100 ul) contained 50 mM Tris, pH 7.5, 0.05% Tween-20, 20 μM AA/LA, 1 μM DHR123, and 100 nM recombinant 12-LOX enzyme/50 nM recombinant 15-LOX enzyme. Inhibitors (dissolved in DMSO) were plated at 1 μL into 96-well assay microplates followed by a 40 μL addition of a solution containing 12-LOX/15-LOX enzyme. Enzyme was pre-incubated with compounds for 15 mins. The assay was initiated by the addition of a 40 μL substrate solution containing AA/LA, and 20 μL addition of a solution containing DHR123. Enzymatic reaction proceeded for 30 min with kinetic reading at 500 nm excitation & 536 nm emission in SpectraMax Paradigm (MolecularDevice). Percent inhibition was calculated for each compound dose for IC50 curve fitting using 4 Parameter Logistic Model or Sigmoidal Dose-Response Model.

recombinant 5-LOX = molecular target: T2, recombinant 5-LOX (Homo sapiens, UniProt P09917); assay: 5-LOX fluorescent assay; settings: several values in one cell = repeat determinations; read-out: IC50 (μM) values for in vitro lipoxygenase inhibition, 5-LOX
T2 sequence (P09917 1-674): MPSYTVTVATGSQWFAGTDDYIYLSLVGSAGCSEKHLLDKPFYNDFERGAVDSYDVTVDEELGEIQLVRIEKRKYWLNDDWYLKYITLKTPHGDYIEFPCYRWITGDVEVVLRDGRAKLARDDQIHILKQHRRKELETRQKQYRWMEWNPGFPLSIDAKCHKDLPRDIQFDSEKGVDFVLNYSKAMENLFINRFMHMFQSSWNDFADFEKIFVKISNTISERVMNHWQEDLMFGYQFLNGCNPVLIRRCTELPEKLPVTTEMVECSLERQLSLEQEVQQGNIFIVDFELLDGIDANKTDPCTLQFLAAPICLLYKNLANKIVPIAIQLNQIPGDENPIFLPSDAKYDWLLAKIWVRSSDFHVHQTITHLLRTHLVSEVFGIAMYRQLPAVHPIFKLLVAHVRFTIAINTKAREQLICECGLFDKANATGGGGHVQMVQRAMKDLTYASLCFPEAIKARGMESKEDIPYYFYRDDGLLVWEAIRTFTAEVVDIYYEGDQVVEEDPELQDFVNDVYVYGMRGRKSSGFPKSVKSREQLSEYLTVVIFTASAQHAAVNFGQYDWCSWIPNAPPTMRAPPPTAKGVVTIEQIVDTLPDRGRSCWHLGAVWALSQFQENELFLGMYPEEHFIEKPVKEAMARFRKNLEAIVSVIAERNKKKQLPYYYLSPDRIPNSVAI
Experimental: 5-LOX FI assay Fluorescent Assay
The enzyme assay (100 μL) contained 50 mM Tris, pH 7.5, 0.1 mM EDTA, 0.3 mM CaCl2, 20 μM AA, 100 μM ATP, 1 μM DHR123, and recombinant 5-LOX cell lysate (0.5 μL/100 μL). Inhibitors (dissolved in DMSO) were plated at 1 μL into 96-well assay microplates followed by a 40 μL addition of a solution containing 5-LOX enzyme. Enzyme was pre-incubated with compounds for 15 mins. The assay was initiated by the addition of a 40 μL substrate solution containing AA and ATP, and 20 μL addition of a solution containing DHR123. Enzymatic reaction proceeded for 30 min with kinetic reading at 500 nm excitation & 536 nm emission in SpectraMax Paradigm (MolecularDevice). Percent inhibition was calculated for each compound dose for IC50 curve fitting using 4 Parameter Logistic Model or Sigmoidal Dose-Response Model.

[2] = molecular target: T3, recombinant 15-LOX enzyme (Homo sapiens, UniProt P16050); assay: 15-LOX fluorescent assay; settings: several values in one cell = repeat determinations
T3 sequence (P16050 1-662): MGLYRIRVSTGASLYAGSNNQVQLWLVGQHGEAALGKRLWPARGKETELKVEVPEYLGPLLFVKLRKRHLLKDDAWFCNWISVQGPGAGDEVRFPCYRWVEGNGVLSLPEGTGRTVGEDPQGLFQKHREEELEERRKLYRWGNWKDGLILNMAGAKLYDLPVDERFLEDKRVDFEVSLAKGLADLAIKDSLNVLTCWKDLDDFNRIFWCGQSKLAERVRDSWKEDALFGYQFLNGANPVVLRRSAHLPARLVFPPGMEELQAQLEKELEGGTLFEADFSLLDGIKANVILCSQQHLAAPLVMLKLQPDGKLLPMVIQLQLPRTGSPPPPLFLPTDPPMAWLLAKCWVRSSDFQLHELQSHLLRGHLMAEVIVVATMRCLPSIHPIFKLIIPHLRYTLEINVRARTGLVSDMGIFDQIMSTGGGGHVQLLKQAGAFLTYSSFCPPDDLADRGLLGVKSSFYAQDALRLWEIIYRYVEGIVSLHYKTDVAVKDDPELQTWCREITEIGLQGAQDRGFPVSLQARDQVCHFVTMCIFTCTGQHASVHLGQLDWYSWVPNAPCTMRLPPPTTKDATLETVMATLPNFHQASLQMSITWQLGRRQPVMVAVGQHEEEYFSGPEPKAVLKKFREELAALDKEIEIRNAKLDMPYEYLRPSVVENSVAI
Experimental: as §1, §2

[3] = read-out: IC50 (μM) values for in vitro lipoxygenase inhibition, 12-LOX
[4] = read-out: IC50 (μM) values for in vitro lipoxygenase inhibition, 15-LOX
[5] = IC50 (μM) values for in vitro lipoxygenase inhibition, 15-LOX

SMILES	IC50 [1, 3]	IC50 (recombinant 5-LOX)	IC50 [2, 4]	IC50 [2, 5] [µM]	IC50 ([1]; IC50 (μM) values for in vitro lipoxygenase inhibition, 12-LOX) [µM]
CN(C)CCOc1cc2c(cc1CNc1ccccc1)[nH]c1ccccc12 [SS20308-0119-01, N-((3-(2-(dimethylamino)ethoxy)-9H-carbazol-2-yl)methyl)aniline]	0.83 µM	1.04 µM	0.71 µM	–	–
Fc1ccc2[nH]c3c(NCCn4cncn4)c(-c4ccccc4)ccc3c2c1 [SS20308-0154-01, N-(2-(1H-1,2,4-triazol-1-yl)ethyl)-6-fluoro-2-phenyl-9H-carbazol-1-amine]	0.35 µM	1.06 µM	0.44 µM	–	–
c1ccc(NC2CCc3[nH]c4ccccc4c3C2)cc1 (stereo not drawn) [SS20308-0158-01, N-phenyl-2,3,4,9-tetrahydro-1H-carbazol-3-amine]	3.16 µM	3.75 µM	1.55 µM	–	–
CN(C)CCCn1c2c(c3ccccc31)CC(Nc1ccccc1)CC2 (stereo not drawn) [SS20308-0159-01, 9-(3-(dimethylamino)propyl)-N-phenyl-2,3,4,9-tetrahydro-1H-carbazol-3-amine]	2.75 µM	1.85 µM	1.59 µM	–	–
CN(C)CCCc1cc(-c2cccc3c2NCC3)cc2[nH]c3ccccc3c12 [SS20308-0170-01, 3-(2-(indolin-7-yl)-9H-carbazol-4-yl)-N,N-dimethylpropan-1-amine]	2.17 µM	4.38 µM	1.53 µM	–	–
c1ccc2c(c1)[nH]c1cc3c(cc12)CCN3CCn1cncn1 [SS20308-0180-01, 1-(2-(1H-1,2,4-triazol-1-yl)ethyl)-1,2,3,9-tetrahydropyrrolo[2,3-b]carbazole]	0.03 µM and 0.08 µM	0.44 µM and 0.81 µM	0.39 µM and 0.51 µM	–	–
CN(C)CCC(c1ccccc1)c1ccc2[nH]c3ccccc3c2c1 (stereo not drawn) [SS20308-0183-01, 3-(9H-carbazol-3-yl)-N,N-dimethyl-3-phenylpropan-1-amino]	50.9 µM	5.01 µM	13.1 µM	–	–
Fc1ccc2[nH]c3cc(-c4ccccc4)c(NCC4(Cn5cncn5)COC4)cc3c2c1 [SS20308-0186-01, N-((3-((1H-1,2,4-triazol-1-yl)methyl)oxetan-3-yl)methyl)-6-fluoro-2-phenyl-9H-carbazol-3-amine]	0.03 µM and 0.01 µM	0.04 µM and 0.01 µM	0.05 µM and 0.02 µM	–	–
CN(C)C(=O)CC(c1ccccc1)c1ccc2[nH]c3ccccc3c2c1 (stereo not drawn) [SS20308-0222-01, 3-(9H-carbazol-3-yl)-N,N-dimethyl-3-phenylpropanamide]	14 µM	10.9 µM	4.53 µM	–	–

Continued by falling IC50 (recombinant 5-LOX), values first:

IC50 [1, 3]	IC50 (recombinant 5-LOX)	IC50 [2, 4]	IC50 [2, 5] [µM]	IC50 ([1]; IC50 (μM) values for in vitro lipoxygenase inhibition, 12-LOX) [µM]	SMILES
0.87 µM	1.02 µM	–	1.38	–	CN(C)CCOc1c2nc(-c3ccccc3)[nH]c2cc2[nH]c3ccccc3c12 [SS20308-0122-01, N,N-dimethyl-2-(2-phenyl-3,5-dihydroimidazo[4,5-b]carbazol-10-yloxy)ethanamine]
0.03 µM	0.92 µM	1.12 µM	–	–	CC1(C)CN(CCn2cncn2)c2cc3[nH]c4ccccc4c3cc21 [SS20308-0209-01, 1-(2-(1H-1,2,4-triazol-1-yl)ethyl)-3,3-dimethyl-1,2,3,9-tetrahydropyrrolo[2,3-b] carbazole]
0.31 µM	0.77 µM	–	1.4	–	CN(CCn1cncn1)c1cc2c(cc1-c1ccccc1)[nH]c1ccc(F)cc12 [SS20308-0182-01, N-(2-(1H-1,2,4-triazol-1-yl)ethyl)-6-fluoro-N-methyl-2-phenyl-9H-carbazol-3-amine]
0.53 µM	0.72 µM	0.5 µM	–	–	COc1c2[nH]c(-c3ccccc3)nc2c(F)c2c1[nH]c1ccccc12 [SS20308-0137-01, 10-fluoro-4-methoxy-2-phenyl-3,5-dihydroimidazo[4,5-b]carbazole]
0.1 µM	0.59 µM	1.15 µM	–	–	Fc1ccc2[nH]c3cc4c(c(F)c3c2c1)CCN4CCn1cncn1 [SS20308-0207-01, 1-(2-(1H-1,2,4-triazol-1-yl)ethyl)-4,6-difluoro-1,2,3,9-tetrahydropyrrolo[2,3-b]carbazole]
1.16 µM	0.53 µM	0.86 µM	–	–	CN(C)CCOc1c2[nH]c(-c3ccccc3)nc2c(F)c2c1[nH]c1ccccc12 [SS20308-0121-01, 2-(10-fluoro-2-phenyl-3,5-dihydroimidazo[4,5-b]carbazol-4-yloxy)-N,N-dimethylethanamine]
0.11 µM	0.22 µM	1.12 µM	–	–	c1ccc2c(c1)CCc1ccc(NCCn3cncn3)cc1N2 [SS20308-0224-01, N-(2-(1H-1,2,4-triazol-1-yl)ethyl)-10,11-dihydro-5H-dibenzo[b,f]azepin-3-amine]
0.01 µM	0.2 µM	0.18 µM	–	–	Fc1ccc2[nH]c3cc4c(cc3c2c1)CCN4CCn1cncn1 [SS20308-0208-01, 1-(2-(1H-1,2,4-triazol-1-yl)ethyl)-6-fluoro-1,2,3,9-tetrahydropyrrolo[2,3-b]carbazole]
0.1 µM	0.08 µM	0.05 µM	–	–	CN(C)CC1(COc2c3[nH]c4ccc(F)cc4c3c(F)c3[nH]c4ccc(F)cc4c23)COC1 [SS20308-0185-01, N,N-dimethyl-1-(3-((2,8,12-trifluoro-5,11-dihydroindolo[3,2-b]carbazol-6-yloxy)methyl)oxetan-3-yl)methanamine]
–	0.04 µM	–	0.04	0.04	CN(C)C/C=C\c1c2[nH]c3ccccc3c2cc2[nH]c3ccccc3c12 [SS20308-0126-01, (Z)-3-(5,11-dihydroindolo[3,2-b]carbazol-6-yl)-N,N-dimethylprop-2-en-1-amine]
